Assay results: ChEMBL document CHEMBL5346955, “Discovery of HPG1860, a Structurally Novel Nonbile Acid FXR Agonist Currently in Clinical Development for the Treatment of Nonalcoholic Steatohepatitis” (J Med Chem, 2023)
In brackets after ≈: the same amount, converted by molar mass. Activity calls are given as the source filed them. The rule behind the calls is not given here.

What was measured:
[1] = Metabolic stability in human liver microsomes assessed as half life at 1 uM measured upto 120 mins by UPLC/MS/MS analysis; format: ADME, Microsome
[2] = Tmax in Sprague-Dawley rat at 9 mg/kg, po measured after 12 hrs by LC-MS/MS analysis; format: ADME, organism-based; conditions: in vivo
[3] = Toxicity in C57BL/6J mouse assessed as change in body weight at 1 to 10 mg/kg, po qd; format: organism-based; conditions: in vivo, dose 1-10 mg/kg
[4] = Cmax in Sprague-Dawley rat at 9 mg/kg, po measured after 12 hrs by LC-MS/MS analysis; format: ADME, organism-based; set-up: time 12 hrs, dose 9 mg/kg, route po; conditions: in vivo
[5] = AUC (0 to t) in Sprague-Dawley rat at 3 mg/kg, iv measured after 5 mins by LC-MS/MS analysis; format: ADME, organism-based; set-up: time 5 min, dose 3 mg/kg, route iv; conditions: in vivo
[6] = Half life in Beagle dog at 1 mg/kg, iv measured after 5 mins by LC-MS/MS analysis; format: ADME, organism-based, Canis lupus familiaris; conditions: in vivo
[7] = Half life in Balb/c mouse at 5 mg/kg, po measured after 12 hrs by LC-MS/MS analysis; format: ADME, organism-based; conditions: in vivo
[8] = Induction of FGF15 gene expression in C57BL/6J mouse ileum assessed as fold increase at 3 mg/kg, po measured after 4 hr by RT-qPCR analysis relative to control; format: functional
[9] = Metabolic stability in rat liver microsomes assessed as half life at 1 uM measured upto 120 mins by UPLC/MS/MS analysis; format: ADME, Microsome
[10] = biological target: T1, Bile acid receptor (Homo sapiens, UniProt Q96RI1); test: Agonist activity at human GAL4-FXR-LBD expressed in HEK293T cells assessed as transcriptional activity measured after 16 to 20 hrs by luciferase reporter gene assay; format: cell-based
T1 sequence (Q96RI1 whole entry): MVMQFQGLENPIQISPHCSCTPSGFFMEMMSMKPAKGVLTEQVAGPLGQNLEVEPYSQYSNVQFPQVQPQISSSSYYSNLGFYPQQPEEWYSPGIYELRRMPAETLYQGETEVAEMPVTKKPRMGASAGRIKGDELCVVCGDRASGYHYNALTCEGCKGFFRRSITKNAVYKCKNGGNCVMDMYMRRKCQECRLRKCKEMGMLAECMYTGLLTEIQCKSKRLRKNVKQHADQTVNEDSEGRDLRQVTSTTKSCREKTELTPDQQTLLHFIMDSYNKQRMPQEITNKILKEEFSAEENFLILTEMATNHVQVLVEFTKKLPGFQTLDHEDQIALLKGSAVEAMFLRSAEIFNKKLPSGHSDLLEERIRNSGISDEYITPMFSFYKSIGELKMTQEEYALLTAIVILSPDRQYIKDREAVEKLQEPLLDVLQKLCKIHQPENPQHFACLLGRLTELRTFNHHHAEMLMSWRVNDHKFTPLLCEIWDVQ

[11] = Oral bioavailability in Balb/c mouse at 5 mg/kg measured after 12 hrs by LC-MS/MS analysis; format: ADME, organism-based; conditions: in vivo
[12] = Half life in Beagle dog at 3 mg/kg, po measured after 12 hrs by LC-MS/MS analysis; format: ADME, organism-based, Canis lupus familiaris; conditions: in vivo
[13] = Drug metabolism in dog assessed as taurine/glycine conjugates in plasma at 50 mg/kg, po; format: ADME, organism-based, Canis lupus familiaris; conditions: in vivo
[14] = Volume of distribution at steady state in Balb/c mouse at 1 mg/kg, iv measured after 5 mins by LC-MS/MS analysis; format: ADME, organism-based; conditions: in vivo, read-out: Vdss
[15] = Induction of SHP gene expression in C57BL/6J mouse ileum assessed as fold increase at 3 mg/kg, po measured after 4 hr by RT-qPCR analysis relative to control; format: functional
[16] = AUC (0 to t) in Sprague-Dawley rat at 9 mg/kg, po measured after 12 hrs by LC-MS/MS analysis; format: ADME, organism-based; set-up: dose 9 mg/kg, time 12 hrs, route po; conditions: in vivo
[17] = Induction of FGF15 gene expression in C57BL/6J mouse ileum assessed as fold increase at 3 mg/kg, po measured after 1 hr by RT-qPCR analysis relative to control; format: functional
[18] = Half life in Balb/c mouse at 1 mg/kg, iv measured after 5 mins by LC-MS/MS analysis; format: ADME, organism-based; conditions: in vivo
[19] = AUC (0 to t) in Balb/c mouse at 1 mg/kg, iv measured after 5 mins by LC-MS/MS analysis; format: ADME, organism-based; set-up: time 5 min, dose 1 mg/kg, route iv; conditions: in vivo
[20] = test system: Mus musculus; test: Anti-nonalcoholic steatohepatitis activity against ccl4-induced C57BL/6J mouse model assessed as reduction total cholesterol in serum at 1 to 10 mg/kg, po qd treated for 28 days; format: functional, organism-based; conditions: dose 1-10 mg/kg, time 28.0 day
[21] = test system: Mus musculus; test: Anti-nonalcoholic steatohepatitis activity against ccl4-induced C57BL/6J mouse model assessed as decrease in AST level in liver at 1 to 10 mg/kg, po qd treated for 28 days; format: functional, organism-based; conditions: dose 1-10 mg/kg, time 28.0 day
[22] = Oral bioavailability in Sprague-Dawley rat at 9 mg/kg measured after 12 hrs by LC-MS/MS analysis; format: ADME, organism-based; conditions: in vivo
[23] = test system: Mus musculus; test: Anti-nonalcoholic steatohepatitis activity against ccl4-induced C57BL/6J mouse model assessed as clearance of liver steatosis at 10 mg/kg, po qd treated for 28 days; format: functional; conditions: time 28 day
[24] = AUC (0 to t) in Beagle dog at 3 mg/kg, po measured after 12 hrs by LC-MS/MS analysis; format: ADME, organism-based, Canis lupus familiaris; set-up: dose 3 mg/kg, time 12 hrs, route po; conditions: in vivo
[25] = Clearance in Beagle dog at 1 mg/kg, iv measured after 5 mins by LC-MS/MS analysis; format: ADME, organism-based, Canis lupus familiaris; conditions: in vivo
[26] = Clearance in Balb/c mouse at 1 mg/kg, iv measured after 5 mins by LC-MS/MS analysis; format: ADME, organism-based; conditions: in vivo
[27] = Induction of SHP gene expression in C57BL/6J mouse liver assessed as fold increase at 3 mg/kg, po measured after 1 hr by RT-qPCR analysis; format: functional
[28] = Half life in Sprague-Dawley rat at 9 mg/kg, po measured after 12 hrs by LC-MS/MS analysis; format: ADME, organism-based; conditions: in vivo
[29] = Half life in Sprague-Dawley rat at 3 mg/kg, iv measured after 5 mins by LC-MS/MS analysis; format: ADME, organism-based; conditions: in vivo
[30] = Volume of distribution at steady state in Sprague-Dawley rat at 3 mg/kg, iv measured after 5 mins by LC-MS/MS analysis; format: ADME, organism-based; conditions: in vivo
[31] = Solubility of the compound in PBS buffer at pH 7.4; format: physicochemical
[32] = biological target: T1, Bile acid receptor; test: Agonist activity at GST-tagged human FXR-LBD in presence of luorescein-SRC2-2 coactivator peptide by TR-FRET assay
[33] = test system: Mus musculus; test: Anti-nonalcoholic steatohepatitis activity against ccl4-induced C57BL/6J mouse model assessed as improvement in NAFLD activity score at 1 to 10 mg/kg, po qd treated for 28 days; format: functional, organism-based; conditions: dose 1-10 mg/kg, time 28.0 day
[34] = Induction of BSEP gene expression in C57BL/6J mouse liver assessed as fold increase at 3 mg/kg, po measured after 12 hr by RT-qPCR analysis; format: functional
[35] = Volume of distribution at steady state in Beagle dog at 1 mg/kg, iv measured after 5 mins by LC-MS/MS analysis; format: ADME, organism-based, Canis lupus familiaris; conditions: in vivo, read-out: Vdss
[36] = AUC (0 to t) in Beagle dog at 1 mg/kg, iv measured after 5 mins by LC-MS/MS analysis; format: ADME, organism-based, Canis lupus familiaris; set-up: dose 1 mg/kg, time 5 min, route iv; conditions: in vivo
[37] = Tmax in Beagle dog at 3 mg/kg, po measured after 12 hrs by LC-MS/MS analysis; format: ADME, organism-based, Canis lupus familiaris; conditions: in vivo
[38] = Tmax in Balb/c mouse at 5 mg/kg, po measured after 12 hrs by LC-MS/MS analysis; format: ADME, organism-based; conditions: in vivo
[39] = test system: Mus musculus; test: Anti-nonalcoholic steatohepatitis activity against ccl4-induced C57BL/6J mouse model assessed as decrease in ALT level in liver at 1 to 10 mg/kg, po qd treated for 28 days; format: functional, organism-based; conditions: dose 1-10 mg/kg, time 28.0 day
[40] = Metabolic stability in dog liver microsomes assessed as half life at 1 uM measured upto 120 mins by UPLC/MS/MS analysis; format: ADME, Canis lupus familiaris, Microsome
[41] = Metabolic stability in cynomolgus monkey liver microsomes assessed as half life at 1 uM measured upto 120 mins by UPLC/MS/MS analysis; format: ADME, Macaca fascicularis, Microsome
[42] = test system: Mus musculus; test: Anti-nonalcoholic steatohepatitis activity against ccl4-induced C57BL/6J mouse model assessed as improvement in fibrosis at 1 to 10 mg/kg, po qd treated for 28 days; format: functional, organism-based; conditions: dose 1-10 mg/kg, time 28.0 day
[43] = Cmax in Beagle dog at 3 mg/kg, po measured after 12 hrs by LC-MS/MS analysis; format: ADME, organism-based, Canis lupus familiaris; set-up: time 12 hrs, dose 3 mg/kg, route po; conditions: in vivo
[44] = AUC (0 to t) in Balb/c mouse at 5 mg/kg, po measured after 12 hrs by LC-MS/MS analysis; format: ADME, organism-based; set-up: dose 5 mg/kg, time 12 hrs, route po; conditions: in vivo
[45] = test system: Mus musculus; test: Anti-nonalcoholic steatohepatitis activity against ccl4-induced C57BL/6J mouse model assessed as improvement in liver inflammation at 1 to 10 mg/kg, po qd treated for 28 days; format: functional, organism-based; conditions: dose 1-10 mg/kg, time 28.0 day
[46] = Cmax in Balb/c mouse at 5 mg/kg, po measured after 12 hrs by LC-MS/MS analysis; format: ADME, organism-based; set-up: dose 5 mg/kg, time 12 hrs, route po; conditions: in vivo

With `COc1cc(C(=O)O)cc2sc(N3CCN(Cc4c(-c5c(Cl)cccc5Cl)noc4C4CC4)C[C@H]3C)nc12` the half-life at 1 µM [1] was 7.45 h, the Tmax [2] was 0.5 h and the Activity [3] was “Non-Toxic”. It also gave a Cmax [4] of 1950 ng/mL, an AUC(0-t) at 5 min [5] of 2610 ng·h/mL and a half-life [6] of 4.07 h. The half-life [7] was 1.52 h, the “fold change (FC)” value [8] was 5 and the half-life at 1 µM [9] was 1.93 h. The EC50 [10] was 18 nM, the bioavailability [11] was 77.2% and the half-life [12] was 9.9 h. For the same compound, the Drug metabolism [13] was “Metabolite_Notdetected”, the Vd [14] was 0.53 L/kg and the “fold change (FC)” value [15] was about 30. The AUC(0-t) at 12 h [16] was 4120 ng·h/mL, the “fold change (FC)” value [17] was 7 and the half-life [18] was 1.6 h. For the same compound, the AUC(0-t) at 5 min [19] was 1010 ng·h/mL, the Activity [20] was “Active” and the Activity [21] was “Active”. It also gave a bioavailability [22] of 52.1%, an Activity [23] of 100% and an AUC(0-t) at 12 h [24] of 8270 ng·h/mL. The clearance [25] was 3.63 mL/min/kg, the clearance [26] was 16.5 mL/min/kg and the “fold change (FC)” value [27] was 12. It also gave a half-life [28] of 2.1 h, a t1/2 [29] of 1.44 h and a Vdss [30] of 29.3 L/kg. The solubility [31] was 284 µM (≈ 163 µg/mL), the EC50 [32] was 5 nM and the Activity [33] was “Active”. For the same compound, the “fold change (FC)” value [34] was 4, the Vd [35] was 0.823 L/kg and the AUC(0-t) at 5 min [36] was 4590 ng·h/mL. The Tmax [37] was 1 h, the Tmax [38] was 0.25 h and the Activity [39] was “Active”. The half-life at 1 µM [40] was 3.95 h, the half-life at 1 µM [41] was 2.57 h and the Activity [42] was “Active”. For the same compound, the Cmax [43] was 1710 ng/mL, the AUC(0-t) at 12 h [44] was 3880 ng·h/mL and the Activity [45] was “Active”. The Cmax [46] was 3610 ng/mL.
